Patent US9487819B2, “Quantitative genetically encoded optical reporter construct” (Cornell University, priority 2009, dated 2016)

B1: Photonus pyralis luciferase: 62 kD firefly luciferase, SEQ ID NO: 1 (protein, listed as Photonis pyralis)
chain: MEDAKNIKKGPAPFYPLEDGTAGEQLHKAMKRYALVPGTIAFTDAHIEVDITYAEYFEMSVRLAEAMKRYGLNTNHRIVVCSENSLQFFMPVLGALFIGVAVAPANDIYNERELLNSMGISQPTVVFVSKKGLQKILNVQKKLPIIQKIIIMDSKTDYQGFQSMYTFVTSHLPPGFNEYDFVPESFDRDKTIALIMNSSGSTGLPKGVALPHRTACVRFSHARDPIFGNQIIPDTAILSVVPFHHGFGMFTTLGYLICGFRVVLMYRFEEELFLRSLQDYKIQSALLVPTLFSFFAKSTLIDKYDLSNLHEIASGGAPLSKEVGEAVAKRFHLPGIRQGYGLTETTSAILITPEGDDKPGAVGKVVPFFEAKVVDLDTGKTLGVNQRGELCVRGPMIMSGYVNNPEATNALIDKDGWLHSGDIAYWDEDEHFFIVDRLKSLIKYKGYQVAPAELESILLQHPNIFDAGVAGLPDDDAGELPAAVVVLEHGKTMTEKEIVDYVASQVTTAKKLRGGVVFVDEVPKGLTGKLDARKIREILIKAKKGGKIAV

Tests used:
[1] = tested on: [ATP] in nerve terminals of neurons; assay: Presynaptic [ATP] at rest reported by Syn-ATP under metabolic inhibitors; format: cell-based, rat; conditions: resting neurons, TTX to block action potential firing (FIG. 15)
Procedure: All experiments were performed using dissociated primary hippocampal neurons according to procedures that have been previously described in Ryan T A. J. Neurosci 19:1317-1323 (1999). Briefly, hippocampi from newborn rats (P2-P4) were removed and dissected. Prior to cell dissociation, the dendate gyrus was removed leaving a relatively pure population of CA3 & CA1 excitatory neurons and interneurons. […] For fluorescence and luminescence experiments cover slips were mounted in a rapid switching low volume perfusion chamber equipped with stimulus electrodes and mounted on the stage of an inverted microscope equipped with EMCCD detection and laser-based wide-field illumination. Chemiluminescence was imaged using the same apparatus as the fluorescence, however no excitation source was used during the detection of light.
On DIV 14-25, neurons were mounted in a custom-built physiological perfusion chamber with temperature control that allows direct control of field stimulation to drive action potential firing. […] Luminescence and fluorescence imaging were performed using an EM-CCD Andor Ixon, thinned back-illuminated sensor through a 1.3 NA 40× fluar objective. Neurons expressing Syn-ATP were perfused with 20 mM luciferin, one minute prior to and throughout the period during which the luminescence images was obtained. […]

[2] = maximal number of photons emitted; cited from earlier work

Molecule	change of [ATP] at rest [1]	kcat [2]
O=CC[C@@H](O)[C@H](O)[C@H](O)CO [2-deoxyglucose]	decreases	–
CC[C@H]1/C=C/C=C/C[C@@H](C)[C@H](O)[C@@](C)(O)C(=O)[C@@H](C)[C@H](O)[C@@H](C)C(=O)[C@@H](C)[C@H](O)[C@@H](C)/C=C/C(=O)O[C@@H]2[C@H](C)[C@H](CC1)O[C@]1(CC[C@H](C)[C@H](C[C@@H](C)O)O1)[C@H]2C [oligomycin]	does not change	–
B1	–	approximately 1.6 per sec
